{"source": "patent US12174205B2", "about": "“Phosphatidylethanolamine-specific probes” (Northwestern University, priority 2014, dated 2024)", "origin": "cited, not measured here", "settings": "at micromolar concentration: membrane distortion, PE translocation", "data": [{"substance": "cinnamycin", "values": [{"measurement": "cytotoxicity", "value": "exhibit cytotoxicity"}]}]}
